Test results published in patent publication US11298366B2, “Ibandronate conjugates of nucleoside antimetabolites” (MBC Pharma, Inc., priority 2017, dated 2022).

Key:
[1] = system: MDA-MB-231-luc-D3H2LN cells; assay: Survival in a rodent model of breast cancer (intracardiac injection of MDA-MB-231-luc-D3H2LN cells); assay type: in vivo, Female Harlan nude mice (Hsd:Athymic Nude-Foxn1nu); details: for effect on survival (Kaplan-Meier, FIG. 1): intraperitoneal QDx5 from day 22 after implantation, 5 mg/kg gemcitabine-ibandronate conjugate, 6 mg/mg gemcitabine-etidronate conjugate, equimolar free etidronate, ibandronate, gemcitabine, groups of 10
Protocol: FIG. 1 provides Kaplan-Meier survival curves: a murine model of breast cancer of mice treated with saline gemcitabine-ibandronate conjugate (GEM-IB) or gemcitabine-etidronate conjugate (GEM-ET).
Female Harlan nude mice (Hsd:Athymic Nude-Foxn1nu) of 8 weeks age were administered a 100 uL intracardiac injection of MDA-MB-231-luc-D3H2LN cells (Caliper/Xenogen) at106 cells/mL in Dulbecco's Phosphate Buffered Saline. Twenty-two days after implantation the animals were randomized into groups of 10. Each group received one of the following agents 5 days per week (QDx5) as a 100 uL intraperitoneal injection to achieve a dosing of: saline, 5 mg/kg gemcitabine-ibandronate conjugate, 6 mg/mg gemcitabine-etidronate conjugate, equimolar free etidronate, equimolar free ibandronate, equimolar free gemcitabine.

[2] = system: 22 RV1-Luc+ prostate cancer cells; assay: Incidence of distal metastases in a rodent model of prostate cancer induced bone disease (intratibial 22 RV1-Luc+ cells); assay type: in vivo, male SCID mice; details: day 34 and day 41; for percent of mice with distal metastases (FIG. 3): 2 mg/kg gemcitabine-ibandronate conjugate or molar equivalent, intraperitoneal QDx5 from day 7, versus saline
Protocol: Mice were treated with saline, or equimolar doses of ibandronate (Iband), gemcitabine (Gem), gemcitabine-etidronate conjugate (Gem-Eti), or with the gemcitabine-ibandronate conjugate 5 (Gem-Ibad).
As above in example 5, six-week old male SCID mice were injected with 10 uL of 10^6 22 RV1-Luc+ prostate cancer cells into the tibia. Luminescence on day 6 confirmed implantation and mice were randomized into groups of 10-13 and began dosing on day 7. Mice received intraperitoneal injections QDx5 (5 days/week) of saline or 2 mg/kg gemcitibine-ibandronate conjugate or the molar equivalent of gemcitabine-etidronate conjugate, free ibandronate, or free gemcitibine until the end of week 6 and were imaged every 7 days. A Xenogen imaging station was used to visualize tumor cells and metastases distal to the tibial site of implantation.

[3] = system: 22 RV1-Luc+ prostate cancer cells; assay: Survival and tumor imaging in a rodent model of prostate cancer induced bone disease (intratibial 22 RV1-Luc+ cells); assay type: in vivo, male SCID mice
Protocol: Six-week old male SCID mice were injected with 10 uL of 10^6 22 RV1-Luc+ prostate cancer cells into the tibia. Luminescence on day 6 confirmed implantation and mice were randomized into groups of 10 and began dosing on day 7. Mice received intraperitoneal injections 5 days/week of saline or 2 mg/kg gemcitibine-ibandronate conjugate (compound 5, example 1) until the end of week 6 and were imaged every 7 days. A Xenogen imaging station was used to visualize tumor cells; the heat map from light blue to red indicates increasing tumor cells numbers.

| Compound | effect on survival (Kaplan-Meier, FIG. 1) [1] | percent of mice with distal metastases (FIG. 3) [2] | mice alive at the end of 42 days (FIG. 2) ([3]; 2 mg/kg intraperitoneal 5 days/week from day 7 until end of week 6, groups of 10, saline control 6 of 10 alive) | cancer cells present by Xenogen image analysis ([3]; 2 mg/kg intraperitoneal 5 days/week, from day 28 and later, versus saline) | benefit on distal metastases compared with the other treatments ([2]; 2 mg/kg intraperitoneal QDx5) | survival benefit compared with the other treatments ([1]; intraperitoneal QDx5, 5 mg/kg gemcitabine-ibandronate conjugate versus 6 mg/mg gemcitabine-etidronate conjugate) |
| --- | --- | --- | --- | --- | --- | --- |
| CCCCCN(C)CCC(O)(P(=O)(O)O)P(=O)(O)O [ibandronate] | did not have a significant effect on survival | – | – | – | – | – |
| gemcitabine-etidronate conjugate [reference compound] | improved survival | reduced the percent of mice with distal metastases | – | – | – | – |
| Nc1ccn([C@@H]2O[C@H](CO)[C@@H](O)C2(F)F)c(=O)n1 [gemcitabine, Gemcitabine] | did not have a significant effect on survival | – | – | – | – | – |
| CCCCCN(C)CCC(O)(P(=O)(O)O)P(=O)(O)OP(=O)(O)OC[C@H]1O[C@@H](n2ccc(N)nc2=O)C(F)(F)C1O (some centres unmarked) [conjugate 5, Gemcitabine-Ibandronate Conjugate] | improved survival | reduced the percent of mice with distal metastases | all mice treated with the compound 5 (example 1) were alive | less cancer cells are present | superior benefit | greatest benefit |
| CC(O)(P(=O)(O)O)P(=O)(O)O [etidronate] | did not have a significant effect on survival | – | – | – | – | – |
